Laboratory results reported in PubChem BioAssay (NCI).
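1) Cells in 96-well plates. 2) Compound, 48 h, 5 concentrations. 3) Linear interpolation between surrounding doses. 4) Unreached endpoint = highest concentration. TGI is the concentration that stops growth completely.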

Columns and labels:
Test in all cases: NCI tumour cell line growth inhibition, 48 h
NCI-H226 lung = system: NCI-H226 lung
SF-295 CNS = system: SF-295 CNS
SK-MEL-28 melanoma = system: SK-MEL-28 melanoma
LOX IMVI melanoma = system: LOX IMVI melanoma
SNB-75 CNS = system: SNB-75 CNS
IGROV1 ovarian = system: IGROV1 ovarian
OVCAR-4 ovarian = system: OVCAR-4 ovarian
SW-620 colon = system: SW-620 colon
OVCAR-8 ovarian = system: OVCAR-8 ovarian
A498 renal = system: A498 renal
SN12C renal = system: SN12C renal
SF-268 CNS = system: SF-268 CNS
CAKI-1 renal = system: CAKI-1 renal
UACC-62 melanoma = system: UACC-62 melanoma
KM12 colon = system: KM12 colon
OVCAR-5 ovarian = system: OVCAR-5 ovarian
SK-OV-3 ovarian = system: SK-OV-3 ovarian
CCRF-CEM leukemia = system: CCRF-CEM leukemia
SK-MEL-2 melanoma = system: SK-MEL-2 melanoma
MALME-3M melanoma = system: MALME-3M melanoma

SMILES | TGI (NCI-H226 lung) [µM] | TGI (SF-295 CNS) [µM] | TGI (SK-MEL-28 melanoma) [µM] | TGI (LOX IMVI melanoma) [µM] | TGI (SNB-75 CNS) [µM] | TGI (IGROV1 ovarian) [µM] | TGI (OVCAR-4 ovarian) [µM] | TGI (SW-620 colon) [µM] | TGI (OVCAR-8 ovarian) [µM] | TGI (A498 renal) [µM] | TGI (SN12C renal) [µM] | TGI (SF-268 CNS) [µM] | TGI (CAKI-1 renal) [µM] | TGI (UACC-62 melanoma) [µM] | TGI (KM12 colon) [µM] | TGI (OVCAR-5 ovarian) [µM] | TGI (SK-OV-3 ovarian) [µM] | TGI (CCRF-CEM leukemia) [µM] | TGI (SK-MEL-2 melanoma) [µM] | TGI (MALME-3M melanoma) [µM]
O=C(O)C12CCCCC1CCCC2 (stereo unspecified) | > 100 | > 100 | > 100 | > 100 | > 100 | > 100 | > 100 | > 100 | > 100 | > 100 | > 100 | > 100 | > 100 | > 100 | > 100 | > 100 | > 100 | > 100 | – | –
COc1cccc(NC(=O)C(=O)C(C(=O)c2ccccc2F)C2OC(=O)c3ccccc32)c1 (stereo unspecified) | 63.5 | > 100 | > 100 | 63.3 | 70.9 | > 100 | > 100 | > 100 | 60.9 | > 100 | > 100 | > 100 | > 100 | > 100 | > 100 | > 100 | > 100 | 62.3 | 75.2 | –
CSc1nc2c(ncn2C2OCC(O)C(O)C2O)c(=O)n1C (stereo unspecified) | > 100 | > 100 | > 100 | > 100 | > 100 | > 100 | > 100 | > 100 | > 100 | > 100 | > 100 | > 100 | – | > 100 | > 100 | > 100 | > 100 | > 100 | > 100 | > 100
COC(=O)C1=C(OC(=O)/C=C/c2ccc(Cl)cc2)C(C(=O)OC)[C@@]2(O)[C@@H](C(=O)OC)[C@H](C)C[C@@H]1[C@@H]2C(=O)OC (stereo partly specified) | 61 | > 100 | 88.7 | 37.7 | > 100 | 23.1 | > 100 | > 100 | 41.6 | – | 45.7 | 42.9 | 87.3 | 54.1 | > 100 | 81.7 | > 100 | 64.8 | 37 | 38.2
COc1cc2c(cc1OC)C(=O)/C(=C/c1cc(OC)c(OC)c(OC)c1)C2 | > 100 | > 100 | > 100 | – | > 100 | > 100 | > 100 | – | > 100 | > 100 | > 100 | – | > 100 | > 100 | > 100 | > 100 | > 100 | > 100 | > 100 | > 100
O=C1C(Cl)N(c2cccc([N+](=O)[O-])c2)C1c1c[nH]c2ccccc12 (stereo unspecified) | – | 35.1 | 73.5 | – | 47.2 | 69.8 | 33.7 | > 100 | 60.4 | – | > 100 | > 100 | – | 32.4 | 49.7 | 37.4 | 38 | 65.7 | 27.5 | 14.1
COC1(O)c2cccc(Cl)c2C(=O)N1C1(C(N)=O)CCCCC1 (stereo unspecified) | > 100 | > 100 | > 100 | > 100 | > 100 | > 100 | > 100 | > 100 | > 100 | > 100 | > 100 | > 100 | > 100 | > 100 | > 100 | > 100 | > 100 | > 100 | > 100 | > 100
COc1ccc2[nH]c3c(C)c4ccnc(NCCCN(C)CCCNc5ccc6ncn7c8ccccc8c(=O)c5c67)c4c(C)c3c2c1 | 2.54 | 1.85 | 21.9 | 0.606 | 7.38 | 1.32 | 6.94 | 25 | 7.16 | 15.2 | 3.38 | 17.3 | 0.561 | 9.18 | 4.65 | 5.2 | 6.8 | 5.62 | 8.74 | 5.92
NC12CCC(CC1=O)C2 (stereo unspecified) | > 100 | > 100 | > 100 | > 100 | > 100 | > 100 | > 100 | > 100 | > 100 | – | > 100 | > 100 | – | > 100 | > 100 | > 100 | > 100 | > 100 | > 100 | > 100
